This is an account of results in patent US9408387B2, “Safening 6-amino-2-(substituted phenyl)-5-substituted-4-pyrimidinecarboxylate herbicide injury on cereal crops” (Dow AgroSciences LLC, priority 2009, dated 2016).

Holding throughout (assay type): in vivo
Experiment [1] has as its system purple deadnettle (Lamium purpureum L; LAMPU). Description: Postemergence herbicidal activity, greenhouse, visual injury: purple deadnettle. To be noted: Lamium purpureum, post-emergence, 480 h, 20-22 d, read-out: LAMPU Ob (visual injury); for pest or weed control at 35 g/ha: herbicide alone 35 g ae/ha; for pest or weed control at 70 g/ha: herbicide alone 70 g/ha; for pest or weed control at 140 g/ha: herbicide alone 140 g/ha. On the procedure: (§1) Evaluation of Postemergence Herbicidal Safening in Cereal Crops
(§2) Seeds of the desired test plant species were planted in Sun Gro MetroMix® 306 planting mixture, which typically has a pH of 6.0 to 6.8 and an organic matter content of about 30 percent, in plastic pots with a surface area of 103.2 square centimeters (cm^2). When required to ensure good germination and healthy plants, a fungicide treatment and/or other chemical or physical treatment was applied. The plants were grown for 7-36 days (d) in a greenhouse with an approximate 14-hour (h) photoperiod which was maintained at about 18° C. during the day and 17° C. during the night. Nutrients and water were added on a regular basis and supplemental lighting was provided with overhead metal halide 1000-Watt lamps as necessary. The plants were employed for testing when they reached the second or third true leaf stage.
(§3) Treatments consisted of the acids or esters of compounds 1-10 and cloquintocet-mexyl (CQC-M), fenchlorazole-ethyl, mefenpyr-diethyl alone and in combination. Weighed amounts of acid or methyl esters of the compounds of formula (I) were dissolved in a volume of 97:3 v/v acetone/dimethylsulfoxide (DMSO) to obtain concentrated solutions. […] The concentrated solutions of the test compound were diluted with the addition of an aqueous mixture containing acetone, water, isopropyl alcohol, DMSO, Agri-Dex crop oil concentrate, and Triton® X-77 surfactant in a 64.7:26.0:6.7:2.0:0.7:0.01 v/v ratio. Test compounds were diluted to the appropriate application rate with a dilution solution which was prepared by mixing the appropriate volume of 97:3 v/v acetone/DMSO and the appropriate volume of an aqueous mixture containing acetone, water, isopropyl alcohol, DMSO, Agri-Dex crop oil concentrate, and Triton® X-77 surfactant in a 64.7:26.0:6.7:2.0:0.7:0.01 v/v ratio. Compound requirements are based upon a 12 mL application volume at a rate of 187 liters per hectare (L/ha). The concentrated solutions of the safener were prepared following the same procedure. Weighed amounts of safener were dissolved in a volume of 97:3 v/v acetone/DMSO to obtain concentrated safener solutions.
(§4) Spray solutions of the herbicide safener and test compound mixtures were prepared by adding the concentrated solutions to the appropriate amount of dilution solution to form 12 mL spray solution with active ingredients in combinations.
(§5) Formulated compounds were applied to the plant material with an overhead Mandel track sprayer equipped with 8002E nozzles calibrated to deliver 187 L/ha over an application area of 0.503 square meters (m^2) at a spray height of 18 inches (43 centimeters (cm)) above average plant canopy. Control plants were sprayed in the same manner with the solvent blank.
(§6) The treated plants and control plants were placed in a greenhouse as described above and watered by sub-irrigation to prevent wash-off of the test compounds. After 20-22 d, the condition of the test plants as compared with that of the control plants was determined visually and scored on a scale of 0 to 100 percent where 0 corresponds to no injury and 100 corresponds to complete kill.
(§7) Colby's equation was used to determine the herbicidal effects expected from the mixtures (Colby, S. R. Calculation of the synergistic and antagonistic response of herbicide combinations. Weeds 1967, 15, 20-22.).
(§8) The following equation was used to calculate the expected activity of mixtures containing two active ingredients, A and B: Expected=A+B−(A×B/100)
(§9) A=observed efficacy of active ingredient A at the same concentration as used in the mixture.
(§10) B=observed efficacy of active ingredient B at the same concentration as used in the mixture.

Experiment [2] relates to winter barley (Hordeum vulgare L; HORVW). Put plainly: Postemergence herbicidal safening in cereal crops, greenhouse, visual injury: winter barley. To be noted: herbicide alone 8.75 g/ha; 20-22 d. On the procedure:
as §1, §2, §3, §4, §5, §6, §7, §8, §9, §10

Experiment [3] concerns bird's-eye speedwell (Veronica persica L; VERPE). Description: Postemergence herbicidal activity, greenhouse, visual injury: bird's-eye speedwell. Conditions: herbicide alone 8.75 g/ha; 20-22 d. As for the experimental part:
as §1, §2, §3, §4, §5, §6, §7, §8, §9, §10

Experiment [4] relates to spring barley (Hordeum vulgare L; HORVS). Put plainly: Postemergence herbicidal safening in cereal crops, greenhouse, visual injury: spring barley. Conditions: Hordeum vulgare, post-emergence, 480 h, 20-22 d, read-out: HORVS Ob (visual injury); for pest or weed control at 8.75 g/ha: herbicide alone 8.75 g/ha; for pest or weed control at 35 g/ha: herbicide alone 35 g ae/ha; for pest or weed control at 70 g/ha: herbicide alone 70 g/ha; for pest or weed control at 140 g/ha: herbicide alone 140 g/ha. As for the experimental part:
as §1, §2, §3, §4, §5, §6, §7, §8, §9, §10

For experiment [5], the system named is kochia (Kochia scoparia L; KCHSC). Put plainly: Postemergence herbicidal activity, greenhouse, visual injury: kochia. Conditions: 20-22 d. As for the experimental part: as §1, §2, §3, §4, §5, §6, §7, §8, §9, §10
The test system of experiment [6] is winter wheat (Triticum aestivum L; TRZAW). Put plainly: Postemergence herbicidal safening in cereal crops, greenhouse, visual injury: winter wheat. Conditions: herbicide alone 8.75 g/ha; 20-22 d. As for the experimental part:
as §1, §2, §3, §4, §5, §6, §7, §8, §9, §10

Experiment [7] relates to spring wheat (Triticum aestivum L; TRZAS). Description: Postemergence herbicidal safening in cereal crops, greenhouse, visual injury: spring wheat. Conditions: Triticum aestivum, post-emergence, 480 h, 20-22 d, read-out: TRZAS Ob (visual injury); for pest or weed control at 8.75 g/ha: herbicide alone 8.75 g/ha; for pest or weed control at 35 g/ha: herbicide alone 35 g ae/ha; for pest or weed control at 70 g/ha: herbicide alone 70 g/ha; for pest or weed control at 140 g/ha: herbicide alone 140 g/ha. As for the experimental part:
as §1, §2, §3, §4, §5, §6, §7, §8, §9, §10

In experiment [8] the test system is durum wheat (Triticum durum L; TRZDU). Description: Postemergence herbicidal safening in cereal crops, greenhouse, visual injury: durum wheat. Conditions: herbicide alone 8.75 g/ha; 20-22 d. As for the experimental part: as §1, §2, §3, §4, §5, §6, §7, §8, §9, §10
Experiment [9] relates to corn poppy (Papaver rhoeas L; PAPRH). Description: Postemergence herbicidal activity, greenhouse, visual injury: corn poppy. To be noted: 20-22 d. On the procedure: as §1, §2, §3, §4, §5, §6, §7, §8, §9, §10
Another experiment relates to CIRAR. Put plainly: Postemergence herbicidal activity, greenhouse, visual injury: CIRAR. Conditions: 20-22 d. As for the experimental part:
as §1, §2, §3, §4, §5, §6, §7, §8, §9, §10

The test system of another experiment is SASKR. Description: Postemergence herbicidal activity, greenhouse, visual injury: SASKR. To be noted: 20-22 d. As for the experimental part: as §1, §2, §3, §4, §5, §6, §7, §8, §9, §10
The subject of a further experiment is MATCH. Description: Postemergence herbicidal activity, greenhouse, visual injury: MATCH. Conditions: 20-22 d. As for the experimental part:
as §1, §2, §3, §4, §5, §6, §7, §8, §9, §10

Turning to `C=Cc1c(N)nc(-c2ccc(Cl)c(OC)c2F)nc1C(=O)O` [Compound 2, 6-amino-2-(4-chloro-2-fluoro-3-methoxyphenyl)-5-vinylpyrimidine-4-carboxylic acid], the results for the pest or weed control at 35 g/ha in [1], in [4] and in experiment [7] were 77%, 68% and 80%, respectively. In [2], the “HORVW Ob (visual injury)” value was 18%. In addition, the “VERPE Ob (visual injury)” value in experiment [3] was found to be 70%. In addition, the pest or weed control at 8.75 g/ha in experiment [4] was determined as 24%; in [7], 41%. Further, the “KCHSC Ob (visual injury)” value in experiment [5] (herbicide alone 8.75 g/ha) worked out at 40%. Moreover, in experiment [6], the “TRZAW Ob (visual injury)” value amounted to 43%. In addition, the “TRZDU Ob (visual injury)” value in [8] came to 30%. In [9] (herbicide alone 8.75 g/ha), the “PAPRH Ob (visual injury)” value is 80%.

Take `COC(=O)c1nc(-c2ccc(Cl)c(OC)c2F)nc(N)c1OC` [Compound 4, 6-amino-2-(4-chloro-2-fluoro-3-methoxyphenyl)-5-methoxypyrimidine-4-carboxylic acid methyl ester]: the values for the pest or weed control at 35 g/ha in [1], in experiment [4] and in experiment [7] were 100%, 75% and 80%, respectively. In addition, the “HORVW Ob (visual injury)” value in experiment [2] was 7%. Moreover, the results for the pest or weed control at 8.75 g/ha in experiment [4] and in experiment [7] were 25% and 33%, respectively. Further, the “TRZAW Ob (visual injury)” value in experiment [6] was found to be 22%. Besides, in experiment [8], the “TRZDU Ob (visual injury)” value came out at 18%.

For `C=Cc1c(N)nc(-c2ccc(Cl)c(OC)c2F)nc1C(=O)OC` [Compound 5, 6-amino-2-(4-chloro-2-fluoro-3-methoxyphenyl)-5-vinylpyrimidine-4-carboxylic acid methyl ester], the pest or weed control at 35 g/ha in experiment [1] amounted to 75%; in experiment [4], 10%; in [7] it was 25%. For the same compound, the pest or weed control at 70 g/ha worked out at 95% in [1], 8% in experiment [4] and 18% in experiment [7]. For the same compound, the values for the pest or weed control at 140 g/ha in [1], in experiment [4] and in [7] were 95%, 0% and 40%, respectively. Moreover, the “CIRAR Ob (visual injury)” value with CIRAR (herbicide alone 70 g/ha) is on record as 84%; with CIRAR (herbicide alone 140 g/ha) it was 85%. Also, the “PAPRH Ob (visual injury)” value was 89% in [9] (herbicide alone 70 g/ha) and 90% in experiment [9] (herbicide alone 140 g/ha).

For the compound `C=Cc1c(N)nc(-c2ccc(Cl)c(N(C)C)c2F)nc1C(=O)O` [Compound 7, 6-amino-2-(4-chloro-3-dimethylamino-2-fluorophenyl)-5-vinylpyrimidine-4-carboxylic acid], the “SASKR Ob (visual injury)” value is 75% in the experiment with SASKR (herbicide alone 70 g/ha) and 80% with SASKR (herbicide alone 140 g/ha). The pest or weed control at 35 g/ha was determined as 52% in experiment [1], 70% in experiment [4] and 75% in experiment [7]. Besides, the “CIRAR Ob (visual injury)” value with CIRAR (herbicide alone 70 g/ha) was found to be 80%; in the experiment with CIRAR (herbicide alone 140 g/ha), 85%. Also, the pest or weed control at 70 g/ha worked out at 30% in experiment [4] and 60% in [7]. The pest or weed control at 140 g/ha in experiment [4] is 45%; in experiment [7], 70%. The “KCHSC Ob (visual injury)” value in [5] (herbicide alone 70 g/ha) is given as 65%; in experiment [5] (herbicide alone 140 g/ha), 75%.

For the compound `COc1c(N)nc(-c2ccc(Cl)c(OC)c2F)nc1C(=O)O` [Compound 8, 6-amino-2-(4-chloro-2-fluoro-3-methoxyphenyl)-5-methoxypyrimidine-4-carboxylic acid], the values for the pest or weed control at 35 g/ha in [1], in experiment [4] and in [7] were 100%, 75% and 83%, respectively. Further, the pest or weed control at 70 g/ha in experiment [1] is 100%; in experiment [4], 50%; in experiment [7], 90%. For the same compound, the pest or weed control at 140 g/ha was 100% in experiment [1], 85% in experiment [4] and 95% in experiment [7]. Also, the “KCHSC Ob (visual injury)” value came out at 90% in [5] (herbicide alone 70 g/ha) and 100% in experiment [5] (herbicide alone 140 g/ha). Also, the “PAPRH Ob (visual injury)” value in experiment [9] (herbicide alone 70 g/ha) and in experiment [9] (herbicide alone 140 g/ha) was 100% each time.

Take `COc1c(N)nc(-c2ccc(Cl)c(F)c2)nc1C(=O)O` [Compound 9, 6-amino-2-(4-chloro-3-fluorophenyl)-5-methoxypyrimidine-4-carboxylic acid]: the figures for the pest or weed control at 70 g/ha in experiment [1], in experiment [4] and in [7] were 95%, 50% and 60%, respectively. Besides, the pest or weed control at 140 g/ha in [1] turned out to be 100%; in experiment [4] it was 70%; in [7] it was 70%. In addition, the “MATCH Ob (visual injury)” value in the experiment with MATCH (herbicide alone 70 g/ha) is listed as 93%; with MATCH (herbicide alone 140 g/ha), 97%. Further, the “KCHSC Ob (visual injury)” value in [5] (herbicide alone 70 g/ha) and in experiment [5] (herbicide alone 140 g/ha) was 100% in each case.
